Results taken from patent publication US11691971B2, “Naphthyridinone compounds as JAK2 V617F inhibitors” (Incyte Corporation, priority 2020, dated 2023).
Structures can show the parent of a compound that is named as a salt.

Columns and labels:
[1] = target: pseudo-kinase domain (JH2) of human Wild Type JAK2 (Homo sapiens (Human), UniProt O60674, F794H/W659A/W777A); test: JAK2 LanthaScreen JH2-WT Binding Assay; settings: JAK2 JH2-WT 0.145 nM, 50 nM tracer, 1 hour at 25° C.; read-out: JH2BIND_WT IC50
Description: Example B. JAK2 LanthaScreen JH2-WT Binding Assay
(§1) The assay was conducted in black 384-well polystyrene plates in a final reaction volume of 20 μL. JAK2 JH2-WT (0.145 nM) was incubated with compounds (100 nL serially diluted in DMSO) in the presence of 50 nM Fluorescent JAK2-JH2 Tracer (MedChem Express Catalog #HY-102055) and 0.25 nM Streptavidin-Tb cryptate (Cisbio Part #610SATLB) in assay buffer (50 mM Tris, pH=7.5, 10 mM MgCl2, 0.01% Brij-35, 0.1% BSA, 1 mM EGTA, 5% Glycerol and 5 mM DTT). Non-specific binding was accessed in the presence of 2 mM ATP. After incubation for 1 hour at 25° C., LanthaScreen signals were read on a PHERAstar FS plate reader (BMG LABTECH). Data was analyzed with IDBS XLfit and GraphPad Prism 5.0 software using a four parameter dose response curve to determine IC50 for each compound.

[2] = target: catalytic domain (JH1, amino acids 826-1132) of human JAK2 (Homo sapiens (Human), UniProt O60674); test: JAK2 LanthaScreen JH1 Binding Assay; settings: JAK2 JH1 1.5 nM, 50 nM tracer, 2 hours at 25° C.; read-out: JH1BIND IC50
Description: Example A. JAK2 LanthaScreen JH1 Binding Assay
as §1, with “JAK2 JH1 binding assay utilizes catalytic domain (JH1, amino acids 826-1132) of human JAK2 expressed as N-terminal FLAG-tagged, biotinylated protein in a baculovirus expression system (Carna Biosciences, Product #08-445-20N). The” for “The”, “JH1 (1.5” for “JH2-WT (0.145”, “fluorescent JAK2-JH1 tracer” for “Fluorescent JAK2-JH2 Tracer (MedChem Express Catalog #HY-102055)”, “0.5” for “0.25”, “2 hours” for “1 hour”

[3] = target: pseudo-kinase domain (JH2) of human V617F mutant JAK2 (Homo sapiens (Human), UniProt O60674, F794H/V617F/W659A/W777A); test: JAK2 LanthaScreen JH2-V617F Binding Assay; settings: JAK2 JH2-V617F 0.26 nM, 50 nM tracer, 1 hour at 25° C.; read-out: JH2BINDING_V617F IC50
Description: The assay was conducted in black 384-well polystyrene plates in a final reaction volume of 20 μL. […] Non-specific binding was accessed in the presence of 2 mM ATP. After incubation for 1 hour at 25° C., LanthaScreen signals were read on a PHERAstar FS plate reader (BMG LABTECH). Data was analyzed with IDBS XLfit and GraphPad Prism 5.0 software using a four parameter dose response curve to determine IC50 for each compound.

[4] = target: catalytic domain (JH1, amino acids 808-1132) of human JAK2 (Homo sapiens (Human), UniProt O60674); test: JAK2 HTRF Enzyme Activity Assay; assay type: biochemical; settings: ATP 30 μM, 60 minutes at 25° C.; read-out: ENZ 30UMATP IC50
Description: Example D. JAK2 HTRF Enzyme Activity Assay
JAK2 enzyme activity assays utilize catalytic domain (JH1, amino acids 808-1132) of human JAK2 expressed as N-terminal His-tagged protein in a baculovirus expression system (BPS Bioscience, Catalog #40450). The assays was conducted in black 384-well polystyrene plates in a final reaction volume of 20 μL. JAK2 (0.015 nM) was incubated with compounds (100 nL serially diluted in DMSO) in the presence of ATP (30 μM or 1 mM) and 500 nM Biotin-labeled […] (SEQ ID NO.: 1) peptide (BioSource International, custom synthesis) in assay buffer (50 mM Tris, pH=7.5, 10 mM MgCl2, 0.01% Brij-35, 0.1% BSA, 1 mM EGTA, 5% Glycerol and 5 mM DTT) for 60 minutes at 25° C. The reactions were stopped by the addition of 10 μL of detection buffer (50 mM Tris, pH 7.8, 0.5 mg/mL BSA, 150 mM NaCl), supplemented with EDTA, LANCE Eu-W1024 anti-phosphotyrosine (PY20), (PerkinElmer, Catalog #AD0067) and Streptavidin SureLight APC (PerkinElmer Catalog #CR130-100), for a final concentration of 15 mM, 1.5 nM and 75 nM, respectively. HTRF signals were read after 30 minutes incubation at room temperature on a PHERAstar FS plate reader (BMG LABTECH). Data was analyzed with IDBS XLfit and GraphPad Prism 5.0 software using a four parameter dose response curve to determine IC50 for each compound.

catalytic domain (JH1, amino acids 808-1132) of human JAK2, sequence (O60674 808-1132): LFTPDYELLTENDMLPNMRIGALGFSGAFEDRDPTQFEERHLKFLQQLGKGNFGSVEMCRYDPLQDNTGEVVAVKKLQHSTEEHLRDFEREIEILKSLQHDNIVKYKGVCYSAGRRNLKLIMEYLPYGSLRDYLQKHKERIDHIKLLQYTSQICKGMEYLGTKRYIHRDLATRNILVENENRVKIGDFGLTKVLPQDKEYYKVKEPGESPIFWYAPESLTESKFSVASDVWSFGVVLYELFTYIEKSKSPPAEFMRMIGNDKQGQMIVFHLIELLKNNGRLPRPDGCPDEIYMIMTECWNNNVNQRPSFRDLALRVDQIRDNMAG
pseudo-kinase domain (JH2) of human Wild Type JAK2, sequence (O60674 536-812 W659A/W777A/F794H): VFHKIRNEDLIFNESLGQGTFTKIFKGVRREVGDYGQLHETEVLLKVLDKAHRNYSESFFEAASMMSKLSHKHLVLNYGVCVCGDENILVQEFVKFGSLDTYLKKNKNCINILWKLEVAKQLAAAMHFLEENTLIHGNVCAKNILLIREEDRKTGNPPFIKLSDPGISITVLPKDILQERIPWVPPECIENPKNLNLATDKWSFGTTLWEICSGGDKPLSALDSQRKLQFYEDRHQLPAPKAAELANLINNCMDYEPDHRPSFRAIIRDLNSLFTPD
pseudo-kinase domain (JH2) of human V617F mutant JAK2, sequence (O60674 536-812 V617F/W659A/W777A/F794H): as the sequence (O60674 536-812 W659A/W777A/F794H) above, with V82F counted along it
catalytic domain (JH1, amino acids 826-1132) of human JAK2, sequence (O60674 826-1132): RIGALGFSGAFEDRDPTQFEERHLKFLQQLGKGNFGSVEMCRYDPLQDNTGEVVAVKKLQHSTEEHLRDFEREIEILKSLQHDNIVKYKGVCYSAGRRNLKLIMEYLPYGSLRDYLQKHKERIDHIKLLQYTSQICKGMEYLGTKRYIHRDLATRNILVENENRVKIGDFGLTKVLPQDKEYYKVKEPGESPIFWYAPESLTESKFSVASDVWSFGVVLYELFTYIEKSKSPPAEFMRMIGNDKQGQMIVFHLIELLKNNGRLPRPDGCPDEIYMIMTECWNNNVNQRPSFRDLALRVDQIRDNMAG

Row | Structure (SMILES) | IC50 [1] | IC50 [2] | IC50 [3] | IC50 [4]
1 | COc1c(Nc2cc(NC(=O)C3CC3)nc3cc[nH]c(=O)c23)cccc1-c1cn[nH]c1 [Example 1, N-(4-((2-Methoxy-3-(1H-pyrazol-4-yl)phenyl)amino)-5-oxo-5,6-dihydro-1,6-naphthyridin-2-yl)cyclopropanecarboxamide] | ≤ 100 nM | 1000 to 10000 nM | 100 to 500 nM | 1000 to 10000 nM
2 | COc1c(Nc2cc(NC(=O)C3CC3)nc3cc[nH]c(=O)c23)cccc1-c1cnc(C2CCOCC2)s1 [Example 2, N-(4-((2-Methoxy-3-(2-(tetrahydro-2H-pyran-4-yl)thiazol-5-yl)phenyl)amino)-5-oxo-5,6-dihydro-1,6-naphthyridin-2-yl)cyclopropanecarboxamide Trifluoroacetic Acid Salt] | ≤ 100 nM | > 10000 nM | ≤ 100 nM | > 10000 nM
3 | COc1c(Nc2cc(NC(=O)C3CC3)nc3cc[nH]c(=O)c23)cccc1-c1cnn(C2CCCC2)c1 [Example 3, N-(4-((3-(1-Cyclopentyl-1H-pyrazol-4-yl)-2-methoxyphenyl)amino)-5-oxo-5,6-dihydro-1,6-naphthyridin-2-yl)cyclopropanecarboxamide Trifluoroacetic Acid Salt] | 100 to 500 nM | > 10000 nM | 100 to 500 nM | > 10000 nM
4 | COc1c(Nc2cc(NC(=O)C3CC3)nc3cc[nH]c(=O)c23)cccc1N1CCN(S(=O)(=O)C2CC2)CC1 [Example 4, N-(4-((3-(4-(Cyclopropylsulfonyl)piperazin-1-yl)-2-methoxyphenyl)amino)-5-oxo-5,6-dihydro-1,6-naphthyridin-2-yl)cyclopropanecarboxamide Trifluoroacetic Acid Salt] | 100 to 500 nM | 1000 to 10000 nM | 100 to 500 nM | > 10000 nM
5 | COc1c(Nc2cc(NC(=O)C3CC3)nc3cc[nH]c(=O)c23)cccc1-c1cnn(C2CCOCC2)c1 [Example 5, N-(4-((2-Methoxy-3-(1-(tetrahydro-2H-pyran-4-yl)-1H-pyrazol-4-yl)phenyl)amino)-5-oxo-5,6-dihydro-1,6-naphthyridin-2-yl)cyclopropanecarboxamide Trifluoroacetic Acid Salt] | ≤ 100 nM | > 10000 nM | ≤ 100 nM | > 10000 nM
6 | O=C(Nc1cc(Nc2cccc(-c3cnn(C4CCOCC4)c3)c2)c2c(=O)[nH]ccc2n1)C1CC1 [Example 6, N-(5-oxo-4-((3-(1-(tetrahydro-2H-pyran-4-yl)-1H-pyrazol-4-yl)phenyl)amino)-5,6-dihydro-1,6-naphthyridin-2-yl)cyclopropanecarboxamide Trifluoroacetic Acid Salt] | > 10000 nM | 1000 to 10000 nM | > 10000 nM | 1000 to 10000 nM
7 | COc1cc(-c2cnn(C3CCOCC3)c2)ccc1Nc1cc(NC(=O)C2CC2)nc2cc[nH]c(=O)c12 [Example 7, N-(4-((2-Methoxy-4-(1-(tetrahydro-2H-pyran-4-yl)-1H-pyrazol-4-yl)phenyl)amino)-5-oxo-5,6-dihydro-1,6-naphthyridin-2-yl)cyclopropanecarboxamide Trifluoroacetic Acid Salt] | 1000 to 10000 nM | 1000 to 10000 nM | > 10000 nM | 1000 to 10000 nM
8 | COc1c(Nc2cc(NC(=O)C3CC3)nc3cc[nH]c(=O)c23)cccc1-c1cnn(C(C)C(N)=O)c1 (stereo not drawn) [Example 8, N-(4-((3-(1-(1-Amino-1-oxopropan-2-yl)-1H-pyrazol-4-yl)-2-methoxyphenyl)amino)-5-oxo-5,6-dihydro-1,6-naphthyridin-2-yl)cyclopropanecarboxamide Trifluoroacetic Acid Salt] | ≤ 100 nM | 1000 to 10000 nM | ≤ 100 nM | 100 to 500 nM
9 | CCn1ccc2cccc(Nc3cc(NC(=O)C4CC4)nc4cc[nH]c(=O)c34)c21 [Example 9, N-(4-((1-Ethyl-1H-indol-7-yl)amino)-5-oxo-5,6-dihydro-1,6-naphthyridin-2-yl)cyclopropanecarboxamide Trifluoroacetic Acid Salt] | 1000 to 10000 nM | > 10000 nM | 1000 to 10000 nM | > 10000 nM
